Measurements as given in patent publication US7723070B2, “Overexpression of aminoacyl-tRNA synthetases for efficient production of engineered proteins containing amino acid analogues” (California Institute of Technology, priority 2000, dated 2010).
Entries after “also recorded” stand apart in the source; their conditions may differ.

Biological target: T1, methionyl tRNA synthetase (MetRS) (Escherichia coli, UniProt P00959)
T1 sequence (P00959 1-548 limits assumed): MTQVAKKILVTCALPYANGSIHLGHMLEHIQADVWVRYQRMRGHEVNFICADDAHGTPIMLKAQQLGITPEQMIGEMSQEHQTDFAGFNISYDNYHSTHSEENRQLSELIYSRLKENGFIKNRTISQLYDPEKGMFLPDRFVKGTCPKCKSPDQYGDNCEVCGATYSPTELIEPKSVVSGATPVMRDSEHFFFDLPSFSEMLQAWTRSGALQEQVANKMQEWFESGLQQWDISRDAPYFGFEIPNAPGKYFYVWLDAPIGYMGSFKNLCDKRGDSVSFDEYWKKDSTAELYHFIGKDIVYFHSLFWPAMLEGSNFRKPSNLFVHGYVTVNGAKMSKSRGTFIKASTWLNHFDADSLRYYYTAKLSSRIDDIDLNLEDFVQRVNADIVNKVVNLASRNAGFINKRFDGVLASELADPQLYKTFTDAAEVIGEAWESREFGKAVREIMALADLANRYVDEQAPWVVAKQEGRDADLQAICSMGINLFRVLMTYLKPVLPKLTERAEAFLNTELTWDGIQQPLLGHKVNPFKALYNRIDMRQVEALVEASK
Assay: ATP-PPi exchange assay: activation of methionine and methionine analogues by MetRS
Format: biochemical, E. coli
Set-up: The fully active, truncated form of methionyl tRNA synthetase (MetRS) was purified from overnight cultures of JM101 cells carrying the plasmid pGG3; made in house; host or cells: E. coli JM101 carrying plasmid pGG3
Details: for fold lower kcat/Km (less efficiently activated) than methionine: relative to methionine
From the text: The fully active, truncated form of methionyl tRNA synthetase (MetRS) was purified from overnight cultures of JM101 cells carrying the plasmid pGG3. (The plasmid, which encodes the tryptic fragment of MetRS, Ghosh, G.; Brunie, S.; Schulman, L. H. J. Biol. Chem. 1991, 266, 17136-17141). The enzyme was purified by size exclusion chromotography as previously described (Mellot, P.; Mechulam, Y.; LeCorre, D.; Blanquet, S.; Fayat, G. J. Mol. Biol. 1989, 208, 429). Activation of methionine analogues by MetRS was assayed via the amino-acid-dependent ATP-PPi exchange reaction, also as previously described (Mellot, P.; Mechulam, Y.; LeCorre, D.; Blanquet, S.; Fayat, G. J. Mol. Biol. 1989, 208, 429; Blanquet, S.; Fayat, G.; Waller, J.-P. Eur. J. Biochem. 1974, 44, 343; Ghosh, G.; Pelka, H.; Schulman, L. H. Biochemistry 1990, 29, 2220). The assay, which measures the ^32P-radiolabeled ATP formed by the enzyme-catalyzed exchange of ^32P-pyrophosphate (PPi) into ATP, was conducted in 150 μl of reaction buffer (pH 7.6, 20 mM imidazole; 0.1 mM EDTA, 10 mM β-mercaptoethanol, 7 mM MgCl2, 2 mM ATP, 0.1 mg/ml BSA, and 2 mM PPi (in the form of sodium pyrophosphate with a specific activity of approximately 0.18 TBq/mole)). […] Kinetic parameters for analogue 5 were obtained with an enzyme concentration of 75 nM and analogue concentrations of 100 μM to 10 mM. Parameters for methionine were obtained by using concentrations ranging from 10 μM to 1 mM. […] Aliquots of 20 μl were removed from the reaction mixture at various time points and were quenched in 0.5 ml of a solution comprising 200 mM PPi, 7% w/v HClO4, and 3% w/v activated charcoal. The charcoal was rinsed twice with 0.5 mL of a 10 mM PPi, 0.5% HClO4 solution and was then resuspended in 0.5 mL of this solution and counted via liquid scintillation methods. Kinetic constants were calculated by nonlinear regression analysis.
The fully active, truncated form of MetRS was purified from overnight cultures of JM101 cells carrying the plasmid pGG3. The enzyme was purified by size exclusion chromotography as previously described (P. Mellot, Y. Mechulam, D. LeCorre, S. Blanquet, G. Fayat, J. Mol. Biol. 1989, 208, 429-443). Activation of methionine analogues by MetRS was assayed at 25° C. via the amino acid-dependent ATP-PPi exchange reaction, also as described in Example I (G. Ghosh, H. Pelka, L. H. Schulman, Biochemistry 1990, 29, 2220-2225). […] Kinetic parameters for analogue 5 were obtained with an enzyme concentration of 50 nM and analogue concentrations of 100 μM to 10 mM. Kinetic parameters for analogue 11 were determined using an enzyme concentration of 50 nM and analogue concentrations ranging from 750 μM to 20 mM. Kinetic parameters for analogues 4, 7, 8, and 12 were obtained with an enzyme concentration of 50 or 75 nM and analogue concentrations ranging from 5 to 70 mM. Parameters for methionine were obtained by using concentrations ranging from 10 μM to 1 mM. […] Kinetic constants were calculated by nonlinear regression analysis.
The fully active, truncated form of MetRS was purified from overnight cultures of E. coli JM101 cells carrying the plasmid pGG3 (Kim, H. Y.; Ghosh, G.; Schulman, L. H.; Brunie, S.; Jakubowski, H. Proc. Natl. Acad. Sci. USA 1993, 90, 11553-11557), by using size exclusion methods previously reported (Mellot, P.; Mechulam, Y.; LeCorre, D.; Blanquet, S.; Fayat, G. J. Mol. Biol. 1989, 208, 429-443). Purified enzyme solutions (in 10 mM phosphate, pH 6.7, 10 mM (β-mercaptoethanol) were concentrated to at least 3 μM prior to their storage in 40% glycerol at −20° C. Concentrations of enzyme stocks were determined by the Bradford method, using samples of MetRS quantified by amino acid analysis as standards.

[1] = 75 nM enzyme, 5 mM L-isomer, 20 minutes
[2] = ATP-PPi exchange, purified truncated MetRS

Molecule	rate/level of PPi exchange (activation by MetRS), in words [1]	fold lower kcat/Km (less efficiently activated) than methionine	other results
C#CCCC(N)C(=O)O (racemic) [Analogue 3, DL-homopropargylglycine]	rates similar to that of norleucine (9); also recorded: several-fold lower than methionine	500 fold	–
CCC[C@H](N)C(=O)O [Analogue 8, L-norvaline]	very slow exchange of PPi	–	–
CCCCCC(N)C(=O)O (racemic) [Analogue 7, DL-2-aminoheptanoic acid]	very slow exchange of PPi	–	–
CSCC[C@H](N)C(=O)O [Analogue 1, L-methionine, reference compound]	–	–	amount of PPi exchanged at a reaction time of 20 minutes [1]: 9 mmol
C/C=C\CC(N)C(=O)O (racemic) [Analogue 4, cis-2-amino-4-hexenoic acid]	does not cause measurable exchange of PPi; also recorded: very slow exchange of PPi	–	–
C/C=C/CC(N)C(=O)O (racemic) [Analogue 5, trans-2-amino-4-hexenoic acid]	very slow exchange of PPi; also recorded: neither recognized efficiently; also recorded: slow exchange of PPi	4700 fold	–
CCCC[C@H](N)C(=O)O [Analogue 9, L-norleucine]	–	1050 fold	–
2-butynylglycine [Analogue 11]	very slow exchange of PPi; also recorded: slow exchange of PPi	13825 fold	Km [2]: 38.6 mM; kcat [2]: 1.51 ± 0.5 s⁻¹
C=CCCC(N)C(=O)O (racemic) [Analogue 2, DL-2-amino-5-hexenoic acid]	rates similar to that of norleucine (9); also recorded: several-fold lower than methionine	1850 fold	–
C=CCC(N)C(=O)O (stereo not shown) [Analogue 12, allylglycine]	very slow exchange of PPi	–	–
